Results taken from patent US7223865B2, “Chromogenic compounds, and use thereof as enzyme substrates” (Biomerieux, priority 2003, dated 2007).

Key:
Test in all cases: L-alanine-aminopeptidase activity on gelled medium, Example 1
Assay type in all cases: cell-based
Conditions in all cases: 0.3 g/l, 24 hours
[1] = test system: Streptococcus agalactiae
Description: (§1) A gelled medium comprising L-alanyl-9-(4-amino-styryl)acridine (hereinafter referred to as L-Ala-4-ASA) or L-alanyl-aminophenylacridine (hereinafter referred to as L-Ala-APA) is prepared as follows: 46.37 g of Columbia agar are added to 1 liter of distilled water and then autoclaved. This reaction medium is separated into two media of equivalent volume. Each of these media comprises, respectively: 0.3 g/l of L-Ala-4-ASA provided by means of the stock solution in DMSO, and 0.3 g/l of L-Ala-APA also provided by means of a stock solution in DMSO.
(§2) Microorganisms derived from the applicant's collection were seeded onto each of the media, by delimitation as three dials, using a suspension at 0.5 McFarland. The dishes were incubated at 37° C. for 24 hours. The colonies formed were examined visually after incubation for 24 hours. The color of these colonies was noted before and after addition of a drop of hydrochloric acid.

[2] = test system: Enterococcus faecalis
Description: as §1, §2

[3] = test system: Escherichia coli
Description: as §1, §2

[4] = test system: Klebsiella pneumoniae
Description: as §1, §2

[5] = test system: Proteus mirabilis
Description: as §1, §2

[6] = test system: Candida albicans
Description: as §1, §2

[7] = test system: Staphylococcus aureus
Description: as §1, §2

[8] = test system: Citrobacter koseri
Description: as §1, §2

[9] = test system: Listeria innocua
Description: as §1, §2

[10] = test system: Enterobacter cloacae
Description: as §1, §2

| Structure (SMILES) | color of colonies ([1]; with HCl) | color of colonies ([1]; without HCl) | color of colonies ([2]; with HCl) | color of colonies ([2]; without HCl) | color of colonies ([3]; with HCl) | color of colonies ([3]; without HCl) | color of colonies ([4]; with HCl) | color of colonies ([4]; without HCl) | color of colonies ([5]; with HCl) | color of colonies ([5]; without HCl) | color of colonies ([6]; with HCl) | color of colonies ([6]; without HCl) | color of colonies ([7]; with HCl) | color of colonies ([7]; without HCl) | color of colonies ([8]; with HCl) | color of colonies ([8]; without HCl) | color of colonies ([9]; with HCl) | color of colonies ([9]; without HCl) | color of colonies ([10]; with HCl) | color of colonies ([10]; without HCl) |
| --- | --- | --- | --- | --- | --- | --- | --- | --- | --- | --- | --- | --- | --- | --- | --- | --- | --- | --- | --- | --- |
| C[C@H](N)C(=O)Nc1ccc(-c2c3ccccc3nc3ccccc23)cc1 [L-Ala-APA] | colorless | colorless | colorless | colorless | pale mauve | colorless | mauve | colorless | very pale- | colorless | Colorless | colorless | colorless | colorless | mauve | colorless | colorless | colorless | mauve | colorless |
| C[C@H](N)C(=O)Nc1ccc(C=Cc2c3ccccc3nc3ccccc23)cc1 [L-Ala-4-ASA, L-alanyl-9-(4-aminostyryl)acridine] | colorless | colorless | colorless | colorless | gray-mauve | colorless | gray-mauve | colorless | gray-mauve | colorless | colorless | colorless | colorless | colorless | gray-mauve | colorless | colorless | colorless | gray-mauve | colorless |
